In patent US10738056B2 (Aduro BioTech, Inc., priority 2017, dated 2020) one finds IC50 data, which are given here for 11 compounds.

For orientation: pIC50 means the negative decadic logarithm of the IC50, by convention in mol/L.

pIC50: −log10 of the molar value.

For assay [1], the target named is Human cGAS amino acids 155-522 (Homo sapiens (Human), UniProt Q8N884). Briefly: cGAS biochemical activity assay (ATP remaining, Kinase-Glo Max luminescence). Conditions: human cGAS 155-522, ATP remaining (Kinase-Glo Max); read-out: cGAS IC50. On the technique in general: Kinase-Glo measures the ATP left after a reaction by luminescence.
Sequence of Human cGAS amino acids 155-522 (Q8N884 157-522): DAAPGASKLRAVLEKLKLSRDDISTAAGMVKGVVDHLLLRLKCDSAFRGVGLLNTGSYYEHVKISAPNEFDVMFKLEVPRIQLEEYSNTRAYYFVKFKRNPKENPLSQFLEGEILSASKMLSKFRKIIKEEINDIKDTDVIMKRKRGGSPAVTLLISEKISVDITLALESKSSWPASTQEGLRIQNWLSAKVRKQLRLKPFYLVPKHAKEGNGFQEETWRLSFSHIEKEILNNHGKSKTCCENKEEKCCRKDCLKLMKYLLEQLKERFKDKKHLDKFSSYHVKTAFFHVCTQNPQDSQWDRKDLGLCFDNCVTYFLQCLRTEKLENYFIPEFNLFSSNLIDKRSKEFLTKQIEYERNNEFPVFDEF
Assay [2] concerns cGAS/STING pathway in THP1 cells. In words: THP1 cell-based cGAS/STING pathway activity assay (IRF-3-linked luciferase reporter). The note with it: Homo sapiens, THP-1. From the text: A cellular assay can be used to assess the compounds of the invention for their ability to inhibit the cGAS/STING pathway. Cells that express a luciferase-based reporter that is linked to IRF-3 activation are used to determine response as a function of compound concentration. Such an assay is described in Vincent et al., Nature Communications 2017, 8(1):750, doi: 10.1038/s41467-017-00833-9.
A cellular assay can be used to assess the compounds of the invention for their ability to inhibit the cGAS/STING pathway. Cells that express a luciferase-based reporter that is linked to IRF-3 activation are used to determine response as a function of compound concentration. Such an assay is described in Vincent et al., Nature Communications 2017, 8(1):750, doi: 10.1038/s41467-017-00833-9. Compounds of the invention were assessed using similar assay methods in a THP1 cell assay to generate IC50 values as provided in the following Table 16. In this table, activity level “A” indicates an IC50 value less than 20 μM, “B” indicates an IC50 value between 20 and 100 μM, and “C” indicates an IC50 value above the upper limit of the assay (100 μM), or where an IC50 value could not be generated from the data.
A general note: A reporter such as luciferase makes a cellular process visible.

On to `Cc1[nH]c2c(-c3ccccc3)c(C(F)(F)F)nn2c(=O)c1C(=O)Nc1cccc(OC(C)C)c1` [Compound A1066, N-(3-isopropoxyphenyl)-5-methyl-7-oxo-3-phenyl-2-(trifluoromethyl)-4,7-dihydropyrazolo[1,5-a]pyrimidine-6-carboxamide], for which the pIC50 in assay [1] and in assay [2] was over 4.70 in each case.
For `COc1cc(NC(=O)c2c(C)[nH]c3c(-c4ccccc4)c(C(F)(F)F)nn3c2=O)cc(OC)c1` [Compound A1067, N-(3,5-dimethoxyphenyl)-5-methyl-7-oxo-3-phenyl-2-(trifluoromethyl)-4,7-dihydropyrazolo[1,5-a]pyrimidine-6-carboxamide], the values for the pIC50 in assay [1] and in assay [2] were over 4.70 and under 4.00, respectively.
For `Cc1[nH]c2c(-c3ccccc3)c(C(F)(F)F)nn2c(=O)c1C(=O)Nc1cn[nH]c1` [Compound A1068, 5-methyl-7-oxo-3-phenyl-N-(1H-pyrazol-4-yl)-2-(trifluoromethyl)-4,7-dihydropyrazolo[1,5-a]pyrimidine-6-carboxamide] the same measures were 3.60 to 4.70 and under 4.00.
For `Cc1[nH]c2c(-c3ccccc3)c(C(F)(F)F)nn2c(=O)c1C(=O)Nc1cccc(N)c1` [Compound A1069, N-(3-aminophenyl)-5-methyl-7-oxo-3-phenyl-2-(trifluoromethyl)-4,7-dihydropyrazolo[1,5-a]pyrimidine-6-carboxamide] the same measures were over 4.70 and 4.00 to 4.70.
For `Cc1[nH]c2c(-c3ccccc3)c(C(F)(F)F)nn2c(=O)c1C(=O)Nc1cccc(C#N)c1` [Compound A1070, N-(3-cyanophenyl)-5-methyl-7-oxo-3-phenyl-2-(trifluoromethyl)-4,7-dihydropyrazolo[1,5-a]pyrimidine-6-carboxamide] the same measures were over 4.70 and over 4.70.
`COCc1ccccc1NC(=O)c1c(C)[nH]c2c(-c3ccccc3)c(C(F)(F)F)nn2c1=O` [Compound A1072, N-(2-(methoxymethyl)phenyl)-5-methyl-7-oxo-3-phenyl-2-(trifluoromethyl)-4,7-dihydropyrazolo[1,5-a]pyrimidine-6-carboxamide]: the pIC50 in assay [1] was 3.60 to 4.70; in assay [2], 4.00 to 4.70.
For `Cc1cc(NC(=O)c2c(C)[nH]c3c(-c4ccccc4)c(C(F)(F)F)nn3c2=O)n(C)n1` [Compound A1073, N-(1,3-dimethyl-1H-pyrazol-5-yl)-5-methyl-7-oxo-3-phenyl-2-(trifluoromethyl)-4,7-dihydropyrazolo[1,5-a]pyrimidine-6-carboxamide] the same measures were 3.60 to 4.70 and under 4.00.
For `Cc1[nH]c2c(-c3ccccc3)c(C(F)(F)F)nn2c(=O)c1C(=O)Nc1ncco1` [Compound A1074, 5-methyl-N-(oxazol-2-yl)-7-oxo-3-phenyl-2-(trifluoromethyl)-4,7-dihydropyrazolo[1,5-a]pyrimidine-6-carboxamide] the same measures were over 4.70 and under 4.00.
Regarding `Cc1cnc(NC(=O)c2c(C)[nH]c3c(-c4ccccc4)c(C(F)(F)F)nn3c2=O)o1` [Compound A1075, 5-methyl-N-(5-methyloxazol-2-yl)-7-oxo-3-phenyl-2-(trifluoromethyl)-4,7-dihydropyrazolo[1,5-a]pyrimidine-6-carboxamide], the pIC50 in assay [1] was over 4.70; in assay [2], 4.00 to 4.70.
As for `Cc1[nH]c2c(-c3ccccc3)c(C(F)(F)F)nn2c(=O)c1C(=O)Nc1cc[nH]n1` [Compound A1076, 5-methyl-7-oxo-3-phenyl-N-(1H-pyrazol-3-yl)-2-(trifluoromethyl)-4,7-dihydropyrazolo[1,5-a]pyrimidine-6-carboxamide], the values for the pIC50 in assay [1] and in assay [2] were over 4.70 and 4.00 to 4.70, respectively.
Taken in the same sequence, the figures for `Cc1[nH]c2c(-c3ccccc3)c(C(F)(F)F)nn2c(=O)c1C(=O)Nc1cnn(C)c1` [Compound A1077, 5-methyl-N-(1-methyl-1H-pyrazol-4-yl)-7-oxo-3-phenyl-2-(trifluoromethyl)-4,7-dihydropyrazolo[1,5-a]pyrimidine-6-carboxamide] were over 4.70 and under 4.00.
